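48-hour exposure; five concentrations; linearly interpolated endpoints. At the GI50, growth is halved. TGI: total growth inhibition.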
What was measured:
Assay in all cases: NCI tumour cell line growth inhibition, 48 h; in the data active = GI50 below about 0.43 µM; inactive = the rest
HT29 colon = system: HT29 colon
NCI-H460 lung = system: NCI-H460 lung
SNB-19 CNS = system: SNB-19 CNS
PC-3 prostate = system: PC-3 prostate
CAKI-1 renal = system: CAKI-1 renal
SR leukemia = system: SR leukemia
BT-549 breast = system: BT-549 breast
HCC-2998 colon = system: HCC-2998 colon
T-47D breast = system: T-47D breast
NCI-H226 lung = system: NCI-H226 lung
HCT-116 colon = system: HCT-116 colon
M14 melanoma = system: M14 melanoma
HOP-62 NSCLC = system: HOP-62 NSCLC
EKVX NSCLC = system: EKVX NSCLC
SNB-75 CNS = system: SNB-75 CNS
OVCAR-5 ovarian = system: OVCAR-5 ovarian
786-0 renal = system: 786-0 renal
TK-10 renal = system: TK-10 renal
LOX IMVI melanoma = system: LOX IMVI melanoma
A498 renal = system: A498 renal
SN12C renal = system: SN12C renal
CCRF-CEM leukemia = system: CCRF-CEM leukemia
HS 578T breast = system: HS 578T breast
RXF 393 renal = system: RXF 393 renal
NCI/ADR-RES ovarian = system: NCI/ADR-RES ovarian
KM12 colon = system: KM12 colon
SK-OV-3 ovarian = system: SK-OV-3 ovarian
OVCAR-3 ovarian = system: OVCAR-3 ovarian
HOP-92 NSCLC = system: HOP-92 NSCLC
SK-MEL-2 melanoma = system: SK-MEL-2 melanoma
A549 NSCLC = system: A549 NSCLC
MCF7 breast = system: MCF7 breast
COLO 205 colon = system: COLO 205 colon
SW-620 colon = system: SW-620 colon
NCI-H23 lung = system: NCI-H23 lung
U251 CNS = system: U251 CNS
SF-268 CNS = system: SF-268 CNS
SF-539 CNS = system: SF-539 CNS
HL-60(TB) leukemia = system: HL-60(TB) leukemia
UACC-257 melanoma = system: UACC-257 melanoma
UO-31 renal = system: UO-31 renal
SK-MEL-28 melanoma = system: SK-MEL-28 melanoma
NCI-H522 lung = system: NCI-H522 lung
K-562 leukemia = system: K-562 leukemia
UACC-62 melanoma = system: UACC-62 melanoma
DU-145 prostate = system: DU-145 prostate
ACHN renal = system: ACHN renal
MOLT-4 leukemia = system: MOLT-4 leukemia
SK-MEL-5 melanoma = system: SK-MEL-5 melanoma
HCT-15 colon = system: HCT-15 colon
SF-295 CNS = system: SF-295 CNS
OVCAR-4 ovarian = system: OVCAR-4 ovarian
OVCAR-8 ovarian = system: OVCAR-8 ovarian
IGROV1 ovarian = system: IGROV1 ovarian
MALME-3M melanoma = system: MALME-3M melanoma
RPMI-8226 leukemia = system: RPMI-8226 leukemia
MDA-MB-435 = system: MDA-MB-435
MDA-MB-231 breast = system: MDA-MB-231 breast

Cc1cn2c(/C=C3/C(=O)Nc4c3ccc3ccccc43)c(C(F)(F)F)nc2s1
39 µM: TGI (786-0 renal)
5.07 µM: TGI (SF-539 CNS)
14.1 µM: TGI (K-562 leukemia)
78.7 µM: TGI (HS 578T breast)
> 100 µM: TGI (SNB-19 CNS) | TGI (PC-3 prostate) | TGI (CAKI-1 renal) | TGI (BT-549 breast) | TGI (HCC-2998 colon) | TGI (T-47D breast) | TGI (NCI-H226 lung) | TGI (HCT-116 colon) | TGI (EKVX NSCLC) | TGI (SNB-75 CNS) | TGI (OVCAR-5 ovarian) | TGI (TK-10 renal) | TGI (A498 renal) | TGI (SN12C renal) | TGI (NCI/ADR-RES ovarian) | TGI (SK-MEL-2 melanoma) | TGI (A549 NSCLC) | TGI (MCF7 breast) | TGI (SW-620 colon) | TGI (NCI-H23 lung) | TGI (U251 CNS) | TGI (SF-268 CNS) | TGI (UACC-257 melanoma) | TGI (UO-31 renal) | TGI (SK-MEL-28 melanoma) | TGI (NCI-H522 lung) | TGI (UACC-62 melanoma) | TGI (DU-145 prostate) | TGI (ACHN renal) | TGI (MOLT-4 leukemia) | TGI (SK-MEL-5 melanoma) | TGI (HCT-15 colon) | TGI (SF-295 CNS) | TGI (OVCAR-4 ovarian) | TGI (OVCAR-8 ovarian)
10.2 µM: TGI (OVCAR-3 ovarian)
25.3 µM: TGI (NCI-H460 lung)
26.4 µM: TGI (SR leukemia)
93.1 µM: TGI (HOP-62 NSCLC)
inactive: GI50 (NCI-H460 lung) 0.501 µM | GI50 (SNB-19 CNS) 2.97 µM | GI50 (PC-3 prostate) 1.24 µM | GI50 (CAKI-1 renal) 1.76 µM | GI50 (BT-549 breast) 1.18 µM | GI50 (HCC-2998 colon) 3.23 µM | GI50 (T-47D breast) 2.88 µM | GI50 (NCI-H226 lung) 17.9 µM | GI50 (HCT-116 colon) 2.19 µM | GI50 (M14 melanoma) 0.526 µM | GI50 (HOP-62 NSCLC) 0.586 µM | GI50 (EKVX NSCLC) 4.23 µM | GI50 (SNB-75 CNS) 0.582 µM | GI50 (OVCAR-5 ovarian) 9.99 µM | GI50 (786-0 renal) 1.49 µM | GI50 (TK-10 renal) 12.6 µM | GI50 (LOX IMVI melanoma) 1.07 µM | GI50 (A498 renal) 1.7 µM | GI50 (SN12C renal) 4.75 µM | GI50 (CCRF-CEM leukemia) 2.33 µM | GI50 (HS 578T breast) 3 µM | GI50 (RXF 393 renal) 2.24 µM | GI50 (NCI/ADR-RES ovarian) 0.456 µM | GI50 (KM12 colon) 0.493 µM | GI50 (SK-OV-3 ovarian) 1.25 µM | GI50 (HOP-92 NSCLC) 5.1 µM | GI50 (SK-MEL-2 melanoma) 1.06 µM | GI50 (A549 NSCLC) 1.18 µM | GI50 (MCF7 breast) 0.449 µM | GI50 (SW-620 colon) 0.965 µM | GI50 (NCI-H23 lung) 2.09 µM | GI50 (U251 CNS) 2.12 µM | GI50 (SF-268 CNS) 3.22 µM | GI50 (SF-539 CNS) 1.14 µM | GI50 (HL-60(TB) leukemia) 0.54 µM | GI50 (UACC-257 melanoma) > 100 µM | GI50 (UO-31 renal) 1.97 µM | GI50 (SK-MEL-28 melanoma) 2.7 µM | GI50 (NCI-H522 lung) 0.584 µM | GI50 (K-562 leukemia) 0.483 µM | GI50 (UACC-62 melanoma) 0.627 µM | GI50 (DU-145 prostate) 1.67 µM | GI50 (ACHN renal) 6.24 µM | GI50 (MOLT-4 leukemia) 2.7 µM | GI50 (SK-MEL-5 melanoma) 1.03 µM | GI50 (HCT-15 colon) 0.618 µM | GI50 (SF-295 CNS) 0.494 µM | GI50 (OVCAR-4 ovarian) 3.63 µM | GI50 (OVCAR-8 ovarian) 4.65 µM
21.1 µM: TGI (LOX IMVI melanoma)
39.8 µM: TGI (CCRF-CEM leukemia)
38.5 µM: TGI (KM12 colon)
32.4 µM: TGI (HL-60(TB) leukemia)
active: GI50 (HT29 colon) 0.396 µM | GI50 (SR leukemia) 0.238 µM | GI50 (OVCAR-3 ovarian) 0.381 µM | GI50 (COLO 205 colon) 0.398 µM
1.9 µM: TGI (COLO 205 colon)
69.3 µM: TGI (SK-OV-3 ovarian)
14.2 µM: TGI (HT29 colon)
8.35 µM: TGI (RXF 393 renal)
11.7 µM: TGI (M14 melanoma)
98.7 µM: TGI (HOP-92 NSCLC)

COc1ccccc1/C=C1\COc2ccc(-c3ccccc3)cc2C1=O
5.6 µM: TGI (SW-620 colon)
59.3 µM: TGI (NCI-H23 lung)
7.61 µM: TGI (SK-MEL-5 melanoma)
6.92 µM: TGI (HCC-2998 colon)
21.1 µM: TGI (OVCAR-5 ovarian)
inactive: GI50 (NCI-H460 lung) 2.1 µM | GI50 (SNB-19 CNS) 4.2 µM | GI50 (PC-3 prostate) 4.28 µM | GI50 (CAKI-1 renal) 4.74 µM | GI50 (SR leukemia) 1.31 µM | GI50 (IGROV1 ovarian) 4.69 µM | GI50 (BT-549 breast) 1.55 µM | GI50 (HCC-2998 colon) 2.63 µM | GI50 (T-47D breast) 2.83 µM | GI50 (NCI-H226 lung) 4.02 µM | GI50 (HCT-116 colon) 2.98 µM | GI50 (M14 melanoma) 4 µM | GI50 (HOP-62 NSCLC) 7.6 µM | GI50 (EKVX NSCLC) 5.59 µM | GI50 (SNB-75 CNS) 2.46 µM | GI50 (OVCAR-5 ovarian) 5.29 µM | GI50 (MALME-3M melanoma) 3.81 µM | GI50 (786-0 renal) 4.31 µM | GI50 (TK-10 renal) 2.64 µM | GI50 (LOX IMVI melanoma) 2.97 µM | GI50 (A498 renal) 2.53 µM | GI50 (SN12C renal) 3.17 µM | GI50 (CCRF-CEM leukemia) 2.08 µM | GI50 (HS 578T breast) 2.75 µM | GI50 (NCI/ADR-RES ovarian) 3.66 µM | GI50 (KM12 colon) 1.93 µM | GI50 (SK-OV-3 ovarian) 3.7 µM | GI50 (OVCAR-3 ovarian) 2.58 µM | GI50 (HOP-92 NSCLC) 4.18 µM | GI50 (SK-MEL-2 melanoma) 3.82 µM | GI50 (A549 NSCLC) 2.61 µM | GI50 (MCF7 breast) 2.4 µM | GI50 (COLO 205 colon) 3.57 µM | GI50 (SW-620 colon) 2.39 µM | GI50 (NCI-H23 lung) 4.38 µM | GI50 (U251 CNS) 2.12 µM | GI50 (SF-268 CNS) 3.14 µM | GI50 (RPMI-8226 leukemia) 2.83 µM | GI50 (SF-539 CNS) 2.61 µM | GI50 (HL-60(TB) leukemia) 1.86 µM | GI50 (UO-31 renal) 8.93 µM | GI50 (SK-MEL-28 melanoma) 3.61 µM | GI50 (NCI-H522 lung) 3.1 µM | GI50 (K-562 leukemia) 4.54 µM | GI50 (MDA-MB-435) 2.11 µM | GI50 (UACC-62 melanoma) 4.39 µM | GI50 (DU-145 prostate) 2.53 µM | GI50 (ACHN renal) 3.86 µM | GI50 (MOLT-4 leukemia) 2.16 µM | GI50 (MDA-MB-231 breast) 3.66 µM | GI50 (SK-MEL-5 melanoma) 2.19 µM | GI50 (HCT-15 colon) 2.64 µM | GI50 (SF-295 CNS) 4 µM | GI50 (OVCAR-4 ovarian) 3.74 µM | GI50 (OVCAR-8 ovarian) 3.27 µM
10.7 µM: TGI (LOX IMVI melanoma)
6.44 µM: TGI (SF-539 CNS)
13 µM: TGI (COLO 205 colon)
85.4 µM: TGI (SF-295 CNS)
7.29 µM: TGI (HS 578T breast)
32.2 µM: TGI (M14 melanoma)
13.3 µM: TGI (SK-MEL-28 melanoma)
10.4 µM: TGI (SF-268 CNS)
6.63 µM: TGI (DU-145 prostate)
> 100 µM: TGI (SNB-19 CNS) | TGI (PC-3 prostate) | TGI (CAKI-1 renal) | TGI (SR leukemia) | TGI (IGROV1 ovarian) | TGI (T-47D breast) | TGI (HOP-62 NSCLC) | TGI (EKVX NSCLC) | TGI (786-0 renal) | TGI (SN12C renal) | TGI (SK-OV-3 ovarian) | TGI (HOP-92 NSCLC) | TGI (RPMI-8226 leukemia) | TGI (HL-60(TB) leukemia) | TGI (NCI-H522 lung) | TGI (K-562 leukemia) | TGI (MDA-MB-435) | TGI (MOLT-4 leukemia) | TGI (OVCAR-4 ovarian)
12 µM: TGI (HCT-116 colon)
22.1 µM: TGI (SK-MEL-2 melanoma)
45.2 µM: TGI (UACC-62 melanoma)
5.48 µM: TGI (OVCAR-3 ovarian)
10.5 µM: TGI (OVCAR-8 ovarian)
23.6 µM: TGI (NCI/ADR-RES ovarian)
7.91 µM: TGI (TK-10 renal)
40.4 µM: TGI (MALME-3M melanoma)
8.9 µM: TGI (A549 NSCLC)
37.3 µM: TGI (UO-31 renal)
13.1 µM: TGI (HCT-15 colon)
4.89 µM: TGI (BT-549 breast)
4.62 µM: TGI (NCI-H460 lung)
5.55 µM: TGI (KM12 colon)
6.97 µM: TGI (SNB-75 CNS)
17.7 µM: TGI (NCI-H226 lung) | TGI (MDA-MB-231 breast)
6.24 µM: TGI (U251 CNS)
26 µM: TGI (ACHN renal)
15.2 µM: TGI (CCRF-CEM leukemia)
6.43 µM: TGI (A498 renal)

From PubChem BioAssay (NCI)
